Like-named read-outs stand apart in the source and are kept apart here.
What was measured:
EP4 = EP4 (Homo sapiens (Human), UniProt P35408); assay: hEP4 cAMP assay (BT549 breast cancer cells, HTRF cAMP); type: cell-based; conditions: antagonistic activity; mean values where measured multiple times
Method: Plate is pre-incubated 45 minutes at room temperature. Subsequently, 2.5 microliters of PGE2 (final conc. 6 nM) are transferred into the assay plate. Plate is incubated 30 minutes at room temperature.

EP2 [1] = target: T1, EP2 (Homo sapiens (Human), UniProt P43116); assay: cell-based;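 note: antagonism of PGE2-stimulated cAMP accumulation in SF295 human glioblastoma cells with endogenous EP2, cAMP read by HTRF, expressed relative to DMSO control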
T1 sequence (P43116 whole entry): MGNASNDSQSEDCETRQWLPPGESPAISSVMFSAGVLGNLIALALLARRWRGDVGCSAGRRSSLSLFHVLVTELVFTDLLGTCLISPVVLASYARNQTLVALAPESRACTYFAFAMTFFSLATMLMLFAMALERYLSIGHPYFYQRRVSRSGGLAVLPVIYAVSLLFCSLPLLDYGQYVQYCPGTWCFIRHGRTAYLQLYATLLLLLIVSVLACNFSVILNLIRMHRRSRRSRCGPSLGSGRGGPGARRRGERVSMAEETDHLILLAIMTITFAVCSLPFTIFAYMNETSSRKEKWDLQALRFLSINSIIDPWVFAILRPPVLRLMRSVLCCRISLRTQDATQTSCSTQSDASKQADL

EP2 [2] = target: T1, EP2

EP4, sequence (P35408 whole entry): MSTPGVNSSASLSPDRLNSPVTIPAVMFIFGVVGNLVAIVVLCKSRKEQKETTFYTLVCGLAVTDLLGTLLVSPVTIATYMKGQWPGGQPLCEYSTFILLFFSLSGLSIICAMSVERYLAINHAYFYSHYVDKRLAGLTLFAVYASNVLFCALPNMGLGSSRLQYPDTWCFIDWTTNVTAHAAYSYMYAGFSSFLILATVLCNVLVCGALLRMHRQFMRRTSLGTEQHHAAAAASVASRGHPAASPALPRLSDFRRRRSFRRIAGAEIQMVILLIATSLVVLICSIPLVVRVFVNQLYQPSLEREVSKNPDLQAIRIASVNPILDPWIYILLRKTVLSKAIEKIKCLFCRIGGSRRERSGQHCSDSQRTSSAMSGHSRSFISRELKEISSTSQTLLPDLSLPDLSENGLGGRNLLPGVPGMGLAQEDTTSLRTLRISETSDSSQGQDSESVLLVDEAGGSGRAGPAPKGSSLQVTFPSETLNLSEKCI

Compound | IC50 (EP4) [nM] | IC50 (EP2 [1]) [nM] | IC50 (EP2 [2]) [nM]
CCOc1cc(-c2cc(NCCn3c(C)cc4c(OC)ccc(F)c43)ncn2)ccc1C(O)C(F)(F)F (racemic) [compound 571] | 511 | 149 | –
Cc1ccc(F)c2c1cc(C)n2CCNc1cc(-c2ccc3c(c2)C(CC(C)C)NC3=O)ncn1 (racemic) [compound 468] | 264 | 59 | –
COc1ccc(F)c2c1cc(C)n2C(C)CNc1cc(-c2ccc(C(=O)O)c(CC(C)C)c2)ncn1 (racemic) [Example 795, rac-4-{6-[2-(7-Fluoro-4-methoxy-2-methyl-indol-1-yl)-propylamino]-pyrimidin-4-yl}-2-isobutyl-benzoic acid] | 306 | 85 | –
CCOc1cc(-c2cc(NCC(C)n3c(C)cc4c(OC)ccc(F)c43)ncn2)ccc1C(=O)O (racemic) [Example 794, rac-2-Ethoxy-4-{6-[2-(7-fluoro-4-methoxy-2-methyl-indol-1-yl)-propylamino]-pyrimidin-4-yl}-benzoic acid] | 798 | 309 | –
CCCC1NC(=O)c2ccc(-c3cc(NCCn4c(C)cc5c(OC)ccc(F)c54)ncn3)cc21 (racemic) [compound 465] | 75 | 17 | –
COc1ccc(F)c2c1cc(C)n2CCNc1cc(-c2ccc(N3CCCS3(=O)=O)cc2)ncn1 [compound 469] | 667 | – | 68

Now from value to molecule:

IC50 (EP4) [nM] | IC50 (EP2 [1]) [nM] | IC50 (EP2 [2]) [nM] | Compound
224 | 22 | – | COc1ccc(F)c2c1cc(C)n2CCNc1cc(-c2ccc3c(c2)C(CC(C)C)NC3=O)ncn1 (racemic) [compound 474]
224 | 24 | – | COc1cccc2c1cc(C)n2CCNc1cc(-c2ccc3c(c2)C(CC(C)C)NC3=O)ncn1 (racemic) [compound 461]
